The target of one test is T1, recombinant human MER (Homo sapiens, UniProt Q12866).
T1 construct: purchased Invitrogen
T1 sequence (Q12866 21-999): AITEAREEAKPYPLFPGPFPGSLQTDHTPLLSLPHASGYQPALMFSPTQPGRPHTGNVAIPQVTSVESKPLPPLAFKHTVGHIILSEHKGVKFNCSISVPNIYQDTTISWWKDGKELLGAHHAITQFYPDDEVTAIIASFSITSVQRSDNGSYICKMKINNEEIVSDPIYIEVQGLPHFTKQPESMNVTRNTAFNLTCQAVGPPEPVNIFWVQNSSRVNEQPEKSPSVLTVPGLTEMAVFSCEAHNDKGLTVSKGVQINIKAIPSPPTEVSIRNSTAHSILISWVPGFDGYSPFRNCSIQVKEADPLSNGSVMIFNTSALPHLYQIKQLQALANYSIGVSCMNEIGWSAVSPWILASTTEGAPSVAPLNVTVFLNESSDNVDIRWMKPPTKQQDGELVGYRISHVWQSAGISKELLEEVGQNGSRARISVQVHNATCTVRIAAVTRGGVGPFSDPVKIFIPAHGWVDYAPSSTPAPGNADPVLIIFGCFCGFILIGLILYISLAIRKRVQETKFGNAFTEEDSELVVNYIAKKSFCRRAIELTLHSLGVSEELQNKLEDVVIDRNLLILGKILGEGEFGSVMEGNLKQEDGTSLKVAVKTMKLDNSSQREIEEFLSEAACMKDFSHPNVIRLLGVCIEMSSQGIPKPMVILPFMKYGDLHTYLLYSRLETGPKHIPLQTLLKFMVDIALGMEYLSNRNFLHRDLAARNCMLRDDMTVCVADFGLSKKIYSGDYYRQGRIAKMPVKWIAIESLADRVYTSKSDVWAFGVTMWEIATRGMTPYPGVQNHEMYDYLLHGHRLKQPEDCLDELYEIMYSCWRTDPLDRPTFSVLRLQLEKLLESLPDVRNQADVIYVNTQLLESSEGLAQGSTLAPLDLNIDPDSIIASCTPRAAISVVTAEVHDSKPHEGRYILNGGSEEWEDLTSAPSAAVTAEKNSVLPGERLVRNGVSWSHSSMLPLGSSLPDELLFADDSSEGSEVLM
Kind of test: Biochemical potency, HTRF KinEASE-TK kinase assay. To be noted: 1 nM MER, 700 μM ATP. Put shortly:
(§1)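 Steps: compound plus kinase, 1 h RT; add ATP (700 µM final) and biotin-TK substrate (800 nM final); run 2 h RT; stop into streptavidin-XL665/anti-phospho cryptate detection mix, 1 h; read 665/620. AXL at 5 nM, TYRO3 and MER at 1 nM.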
(In general: Time-resolved FRET reads energy transfer from a long-lived donor to a nearby acceptor.)

A further test concerns the target T2, recombinant human TYRO3 (Homo sapiens, UniProt Q06418).
T2 construct: purchased Invitrogen
T2 sequence (Q06418 41-890): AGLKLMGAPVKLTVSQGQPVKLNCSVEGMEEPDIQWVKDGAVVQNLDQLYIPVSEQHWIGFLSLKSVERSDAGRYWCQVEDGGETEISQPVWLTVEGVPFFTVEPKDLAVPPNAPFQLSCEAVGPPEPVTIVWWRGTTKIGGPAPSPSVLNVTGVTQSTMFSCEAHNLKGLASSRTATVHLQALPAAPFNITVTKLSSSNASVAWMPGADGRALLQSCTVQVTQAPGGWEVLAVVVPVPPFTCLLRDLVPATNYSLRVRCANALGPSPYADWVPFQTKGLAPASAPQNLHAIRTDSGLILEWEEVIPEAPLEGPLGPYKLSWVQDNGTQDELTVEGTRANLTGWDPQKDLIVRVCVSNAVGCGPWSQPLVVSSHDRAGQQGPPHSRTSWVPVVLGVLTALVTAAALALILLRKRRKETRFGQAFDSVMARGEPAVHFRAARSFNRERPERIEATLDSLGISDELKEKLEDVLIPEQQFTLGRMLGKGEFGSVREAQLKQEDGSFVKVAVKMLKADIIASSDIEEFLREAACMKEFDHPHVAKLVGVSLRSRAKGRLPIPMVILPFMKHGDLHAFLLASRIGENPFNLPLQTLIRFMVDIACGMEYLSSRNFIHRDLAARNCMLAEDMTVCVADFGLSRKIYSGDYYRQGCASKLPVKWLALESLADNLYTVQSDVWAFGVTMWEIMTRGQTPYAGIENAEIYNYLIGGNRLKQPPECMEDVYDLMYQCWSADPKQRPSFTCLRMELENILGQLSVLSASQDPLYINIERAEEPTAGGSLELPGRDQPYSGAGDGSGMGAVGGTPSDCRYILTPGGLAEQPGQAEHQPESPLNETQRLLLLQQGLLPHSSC
Kind of test: Biochemical potency, HTRF KinEASE-TK kinase assay. The following applies: 1 nM TYRO3, 700 μM ATP. The procedure, abridged:
as §1

In patent publication US12195482B1 (Arcus Biosciences, Inc., priority 2022, dated 2025) one finds IC50 data, which are given here for 15 compounds.

The structures appear in SMILES notation.

As to `Cc1ccnnc1-c1ccc(-c2c[nH]c3ncc(-c4ccc5c(c4)CC[C@@](C)(N4CCC[C@H]4C)CC5)cc23)cc1` [Example 51, 4-methyl-3-(4-{5-[(7S)-7-Methyl-7-[(2R)-2-methylpyrrolidin-1-yl]-6,7,8,9-tetrahydro-5H-benzo[7]annulen-2-yl]-1H-pyrrolo[2,3-b]pyridin-3-yl}phenyl)pyridazine], the 50% inhibitory concentration (IC50) at recombinant human MER and on recombinant human TYRO3 was less than 100 nM throughout.
For `N#Cc1cccnc1-c1ccc(-c2n[nH]c3ncc(-c4ccc5c(c4)CC[C@@H](N4C6COCC4C6)CC5)cc23)cc1` [Example 52, 2-(4-{5-[(7S)-7-{3-Oxa-6-azabicyclo[3.1.1]heptan-6-yl}-6,7,8,9-tetrahydro-5H-benzo[7]annulen-2-yl]-1H-pyrazolo[3,4-b]pyridin-3-yl}phenyl)pyridine-3-carbonitrile], the IC50 at recombinant human MER and at recombinant human TYRO3 was 100 to 1000 nM in each case.
For the compound `Cc1cnc(C)c(-c2ccc(-c3c[nH]c4ncc(-c5ccc6c(c5)CC[C@@H](N5C7COCC5C7)CC6)cc34)cc2)n1` [Example 53, 6-[(7S)-2-{3-[4-(3,6-Dimethylpyrazin-2-yl)phenyl]-1H-pyrrolo[2,3-b]pyridin-5-yl}-6,7,8,9-tetrahydro-5H-benzo[7]annulen-7-yl]-3-oxa-6-azabicyclo[3.1.1]heptane], the IC50 on recombinant human MER and on recombinant human TYRO3 was 100 to 1000 nM each time.
Take `Cc1nccnc1-c1ccc(-c2c[nH]c3ncc(-c4ccc5c(c4)CC[C@@H](N4C6COCC4C6)CC5)cc23)nc1` [Example 54, 6-[(7S)-2-{3-[5-(3-Methylpyrazin-2-yl)pyridin-2-yl]-1H-pyrrolo[2,3-b]pyridin-5-yl}-6,7,8,9-tetrahydro-5H-benzo[7]annulen-7-yl]-3-oxa-6-azabicyclo[3.1.1]heptane]: the IC50 was greater than 1000 nM on recombinant human MER and 100 to 1000 nM at recombinant human TYRO3.
Consider `Cc1ccnnc1-c1ccc(-c2n[nH]c3ncc(-c4ccc5c(c4)CC[C@@H](N4C6COCC4C6)CC5)cc23)nc1` [Example 56, 6-[(7S)-2-{3-[5-(4-Methylpyridazin-3-yl)pyridin-2-yl]-1H-pyrazolo[3,4-b]pyridin-5-yl}-6,7,8,9-tetrahydro-5H-benzo[7]annulen-7-yl]-3-oxa-6-azabicyclo[3.1.1]heptane], for which the IC50 on recombinant human MER and on recombinant human TYRO3 was 100 to 1000 nM throughout.
Regarding `Cc1cnc(-c2ccc(-c3c[nH]c4ncc(-c5ccc6c(c5)CC[C@@](C)(N5CCC[C@H]5C)CC6)cc34)cc2)c(C)n1` [Example 57, 3,5-Dimethyl-2-(4-{5-[(7S)-7-methyl-7-[(2R)-2-methylpyrrolidin-1-yl]-6,7,8,9-tetrahydro-5H-benzo[7]annulen-2-yl]-1H-pyrrolo[2,3-b]pyridin-3-yl}phenyl)pyrazine], the IC50 at recombinant human MER and on recombinant human TYRO3 was 100 to 1000 nM each time.
As for `Cc1cnc(C)c(-c2ccc(-c3c[nH]c4ncc(-c5ccc6c(c5)CC[C@@](C)(N5CCC[C@H]5C)CC6)cc34)cc2)n1` [Example 58, 2,5-Dimethyl-3-(4-{5-[(7S)-7-methyl-7-[(2R)-2-methylpyrrolidin-1-yl]-6,7,8,9-tetrahydro-5H-benzo[7]annulen-2-yl]-1H-pyrrolo[2,3-b]pyridin-3-yl}phenyl)pyrazine], the IC50 at recombinant human MER and at recombinant human TYRO3 was 100 to 1000 nM in each case.
On to `Cc1cnc(-c2ccc(-c3c[nH]c4ncc(-c5ccc6c(c5)CC[C@@H](N5CCCC5)CC6)cc34)cc2)c(C)n1` [Example 59, 3,5-Dimethyl-2-(4-{5-[(7S)-7-(pyrrolidin-1-yl)-6,7,8,9-tetrahydro-5H-benzo[7]annulen-2-yl]-1H-pyrrolo[2,3-b]pyridin-3-yl}phenyl)pyrazine], for which the IC50 on recombinant human MER and at recombinant human TYRO3 was 100 to 1000 nM in each case.
`Cc1cc(C)c(-c2ccc(-c3n[nH]c4ncc(-c5ccc6c(c5)CC[C@@H](N5C7COCC5C7)CC6)cc34)cc2)nn1` [Example 77, 6-[(7S)-2-{3-[4-(4,6-Dimethylpyridazin-3-yl)phenyl]-1H-pyrazolo[3,4-b]pyridin-5-yl}-6,7,8,9-tetrahydro-5H-benzo[7]annulen-7-yl]-3-oxa-6-azabicyclo[3.1.1]heptane]: the IC50 at recombinant human MER is 100 to 1000 nM; on recombinant human TYRO3, less than 100 nM.
In the case of `Cc1cc(C)c(-c2ccc(-c3n[nH]c4ncc(-c5ccc6c(c5)CC[C@@](C)(N5CCC[C@H]5C)CC6)cc34)cc2)nn1` [Example 78, 4,6-Dimethyl-3-(4-{5-[(7S)-7-methyl-7-[(2R)-2-methylpyrrolidin-1-yl]-6,7,8,9-tetrahydro-5H-benzo[7]annulen-2-yl]-1H-pyrazolo[3,4-b]pyridin-3-yl}phenyl)pyridazine], the IC50 at recombinant human MER and on recombinant human TYRO3 was less than 100 nM in each case.
As for `Cc1cc(C)c(-c2ccc(-c3c[nH]c4ncc(-c5ccc6c(c5)CC[C@@H](N5C7COCC5C7)CC6)cc34)cc2)nn1` [Example 80, 6-[(7S)-2-{3-[4-(4,6-Dimethylpyridazin-3-yl)phenyl]-1H-pyrrolo[2,3-b]pyridin-5-yl}-6,7,8,9-tetrahydro-5H-benzo[7]annulen-7-yl]-3-oxa-6-azabicyclo[3.1.1]heptane], the IC50 at recombinant human MER is less than 100 nM; on recombinant human TYRO3, 100 to 1000 nM.
In the case of `CC(C)(C#N)c1cccnc1-c1ccc(-c2n[nH]c3ncc(-c4ccc5c(c4)CC[C@@H](N4C6COCC4C6)CC5)cc23)cc1` [Example 85, 2-Methyl-2-[2-[4-[5-[(7S)-7-(3-oxa-6-azabicyclo[3.1.1]heptan-6-yl)-6,7,8,9-tetrahydro-5H-benzo[7]annulen-3-yl]-1H-pyrazolo[3,4-b]pyridine-3-yl]phenyl]pyridine-3-yl]propanenitrile], the IC50 at recombinant human MER and on recombinant human TYRO3 was 100 to 1000 nM each time.
As to `COc1ccnc(-c2ccc(-c3c[nH]c4ncc(-c5ccc6c(c5)CC[C@@H](N5C7COCC5C7)CC6)cc34)cc2)c1C` [Example 86, 6-[(7S)-3-[3-[4-(4-Methoxy-3-methylpyridin-2-yl)phenyl]-1H-pyrrolo[2,3-b]pyridin-5-yl]-6,7,8,9-tetrahydro-5H-benzo[7]annulen-7-yl]-3-oxa-6-azabicyclo[3.1.1]heptane], the IC50 on recombinant human MER and at recombinant human TYRO3 was 100 to 1000 nM each time.
For the compound `COc1ccnc(-c2ccc(-c3n[nH]c4ncc(-c5ccc6c(c5)CC[C@@H](N5C7COCC5C7)CC6)cc34)cc2)c1C` [Example 87, 6-[(7S)-3-[3-[4-(4-Methoxy-3-methylpyridin-2-yl)phenyl]-1H-pyrazolo[3,4-b]pyridin-5-yl]-6,7,8,9-tetrahydro-5H-benzo[7]annulen-7-yl]-3-oxa-6-azabicyclo[3.1.1]heptane], the IC50 at recombinant human MER and on recombinant human TYRO3 was 100 to 1000 nM each time.
Regarding `FC(F)(F)c1cccnc1-c1ccc(-c2n[nH]c3ncc(-c4ccc5c(c4)CC[C@@H](N4C6COCC4C6)CC5)cc23)cc1` [Example 88, 6-[(7S)-3-[3-[4-[3-(Trifluoromethyl)pyridin-2-yl]phenyl]-1H-pyrazolo[3,4-b]pyridin-5-yl]-6,7,8,9-tetrahydro-5H-benzo[7]annulen-7-yl]-3-oxa-6-azabicyclo[3.1.1]heptane], the IC50 at recombinant human MER and at recombinant human TYRO3 was 100 to 1000 nM throughout.

In general, IC50 refers to the concentration that inhibits the measured activity by half.
